Source: patent publication US6638973B2, “Taxane formulations” (FSU Research Foundation, Inc., priority 2000, dated 2003)
Where two headings read alike, the source gives them in different places.

System: HCT116 cells
Assay: In vitro cytotoxicity measured by the cell colony formation assay
Type: cell-based
Conditions: colonies counted after 7 days, read-out: IN VITRO ID 50 (nm) HCT116
How it was run: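 Colony-forming survival was scored 7 days after a 72 h, 37 °C compound exposure followed by washout into fresh medium.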

[1] = HCT116 colony formation, 72 h drug incubation, Example 5, C-7 ester/C-10 hydroxy taxanes
[2] = HCT116 colony formation, 72 h drug incubation, Example 10, C-10 ester/C-7 hydroxy taxanes
[3] = HCT116 cells, 72 h incubation with drug, ID50 = drug concentration producing 50% inhibition of colony formation
[4] = HCT116 cells, 72 h drug incubation, ID50 = drug concentration producing 50% inhibition of colony formation

CCC(=O)O[C@H]1C[C@H]2OC[C@@]2(OC(C)=O)C2[C@H](OC(=O)c3ccccc3)[C@]3(O)C[C@H](OC(=O)[C@H](O)[C@@H](NC(=O)c4ccccc4)c4ccco4)C(C)=C([C@@H](O)C(=O)[C@@]21C)C3(C)C (stereo partly drawn) [Compound 4017] showed an IC50 [1] of less than 10 nM.

Compound CCC(=O)O[C@H]1C[C@H]2OC[C@@]2(OC(C)=O)C2[C@H](OC(=O)c3ccccc3)[C@]3(O)C[C@H](OC(=O)[C@H](O)[C@@H](NC(=O)OC(C)(C)C)C(C)C)C(C)=C([C@@H](O)C(=O)[C@@]21C)C3(C)C (stereo partly drawn) [Compound 1434] has an IC50 [1] of less than 10 nM.

Compound CCC(=O)O[C@H]1C(=O)[C@@]2(C)C([C@H](OC(=O)c3ccccc3)[C@]3(O)C[C@H](OC(=O)[C@H](O)[C@@H](NC(=O)c4cccs4)c4cccs4)C(C)=C1C3(C)C)[C@]1(OC(C)=O)CO[C@@H]1C[C@@H]2O (stereo partly drawn) [Compound 3425] has an IC50 [2] of less than 1 nM.

In the case of CC(=O)OC12COC1CC(O)C1(C)C(=O)C(OC(=O)c3cccs3)C3=C(C)C(OC(=O)C(O)C(NC(=O)OC(C)(C)C)c4cccnc4)CC(O)(C(OC(=O)c4ccccc4)C21)C3(C)C (stereo not drawn) [Compound 1948], the IC50 [2] is reported as less than 10 nM.

In the case of CCC(=O)O[C@H]1C[C@H]2OC[C@@]2(OC(C)=O)C2[C@H](OC(=O)c3ccccc3)[C@]3(O)C[C@H](OC(=O)[C@H](O)[C@@H](NC(=O)OC(C)(C)C)c4nccs4)C(C)=C([C@@H](O)C(=O)[C@@]21C)C3(C)C (stereo partly drawn) [Compound 6363], the IC50 [1] is reported as less than 10 nM.

For CCC(=O)O[C@H]1C(=O)[C@@]2(C)C([C@H](OC(=O)c3ccccc3)[C@]3(O)C[C@H](OC(=O)[C@H](O)[C@@H](NC(=O)c4ccccc4)c4ccccn4)C(C)=C1C3(C)C)[C@]1(OC(C)=O)CO[C@@H]1C[C@@H]2O (stereo partly drawn) [Compound 0634], the IC50 [2] was less than 10 nM.

C/C=C/C(=O)N[C@@H](c1cccs1)[C@@H](O)C(=O)O[C@H]1C[C@@]2(O)[C@@H](OC(=O)c3ccccc3)C3[C@](C)(C(=O)[C@H](O)C(=C1C)C2(C)C)[C@@H](OC(=O)CCC)C[C@H]1OC[C@@]31OC(C)=O (stereo partly drawn) [Compound 4757] showed an IC50 [1] of less than 1 nM.

Work on CC(=O)O[C@@]12CO[C@@H]1C[C@H](O)[C@@]1(C)C(=O)[C@H](OC(=O)C3CC3)C3=C(C)[C@@H](OC(=O)[C@H](O)[C@@H](NC(=O)C=C(C)C)c4cccs4)C[C@@](O)([C@@H](OC(=O)c4ccccc4)C12)C3(C)C (stereo partly drawn) [Compound 4329] yielded an IC50 [2] of less than 1 nM.

For CCC(=O)O[C@H]1C(=O)[C@@]2(C)C([C@H](OC(=O)c3ccccc3)[C@]3(O)C[C@H](OC(=O)[C@H](O)[C@@H](NC(=O)c4ccccc4)c4ccc([N+](=O)[O-])cc4)C(C)=C1C3(C)C)[C@]1(OC(C)=O)CO[C@@H]1C[C@@H]2O (stereo partly drawn) [Compound 0732], the IC50 [2] was less than 10 nM.

Compound CC(=O)O[C@@]12CO[C@@H]1C[C@H](O)[C@@]1(C)C(=O)[C@H](OC(=O)C=C(C)C)C3=C(C)[C@@H](OC(=O)[C@H](O)[C@@H](NC(=O)OC(C)(C)C)c4cccs4)C[C@@](O)([C@@H](OC(=O)c4ccccc4)C12)C3(C)C (stereo partly drawn) [Compound 2503] has an IC50 [2] of less than 1 nM.

Compound CCCC(=O)O[C@H]1C(=O)[C@@]2(C)C([C@H](OC(=O)c3ccccc3)[C@]3(O)C[C@H](OC(=O)[C@H](O)[C@@H](NC(=O)OCC(C)C)c4ccco4)C(C)=C1C3(C)C)[C@]1(OC(C)=O)CO[C@@H]1C[C@@H]2O (stereo partly drawn) [Compound 3110] has an IC50 [2] of less than 1 nM.

Compound CCOC(=O)O[C@H]1C(=O)[C@@]2(C)C([C@H](OC(=O)c3ccccc3)[C@]3(O)C[C@H](OC(=O)[C@H](O)[C@@H](NC(=O)OC(C)(C)C)c4ccccn4)C(C)=C1C3(C)C)[C@]1(OC(C)=O)CO[C@@H]1C[C@@H]2O (stereo partly drawn) [Compound 1799] has an IC50 [3] of less than 1 nM.

With CCOC(=O)O[C@H]1C[C@H]2OC[C@@]2(OC(C)=O)C2[C@H](OC(=O)c3ccccc3)[C@]3(O)C[C@H](OC(=O)[C@H](O)[C@@H](NC(=O)OC(C)(C)C)c4ccsc4)C(C)=C([C@@H](O)C(=O)[C@@]21C)C3(C)C (stereo partly drawn) [Compound 4500] the IC50 [3] was less than 1 nM.

CCCNC(=O)O[C@H]1C[C@H]2OC[C@@]2(OC(C)=O)C2[C@H](OC(=O)c3ccccc3)[C@]3(O)C[C@H](OC(=O)[C@H](O)[C@@H](NC(=O)OC(C)(C)C)c4ccco4)C(C)=C([C@@H](O)C(=O)[C@@]21C)C3(C)C (stereo partly drawn) [Compound 5665] gave an IC50 [4] greater than 50 nM.

Compound C/C=C/C(=O)O[C@H]1C(=O)[C@@]2(C)C([C@H](OC(=O)c3ccccc3)[C@]3(O)C[C@H](OC(=O)[C@H](O)[C@@H](NC(=O)OC(C)(C)C)c4ccncc4)C(C)=C1C3(C)C)[C@]1(OC(C)=O)CO[C@@H]1C[C@@H]2O (stereo partly drawn) [Compound 2366] has an IC50 [2] of less than 1 nM.

CC(=O)O[C@@]12CO[C@@H]1C[C@H](O)[C@@]1(C)C(=O)[C@H](OC(=O)C3CC3)C3=C(C)[C@@H](OC(=O)[C@H](O)[C@@H](NC(=O)c4ccccc4)c4ccsc4)C[C@@](O)([C@@H](OC(=O)c4ccccc4)C12)C3(C)C (stereo partly drawn) [Compound 2838] was tested, and the IC50 [2] was less than 1 nM.

CCC(=O)O[C@H]1C(=O)[C@@]2(C)C([C@H](OC(=O)c3ccccc3)[C@]3(O)C[C@H](OC(=O)[C@H](O)[C@H](C=C(C)C)NC(=O)OCC(C)C)C(C)=C1C3(C)C)[C@]1(OC(C)=O)CO[C@@H]1C[C@@H]2O (stereo partly drawn) [Compound 5065] was tested, and the IC50 [2] was less than 10 nM.

CCOC(=O)O[C@H]1C(=O)[C@@]2(C)C([C@H](OC(=O)c3ccccc3)[C@]3(O)C[C@H](OC(=O)[C@H](O)[C@@H](NC(=O)c4ccco4)c4ccco4)C(C)=C1C3(C)C)[C@]1(OC(C)=O)CO[C@@H]1C[C@@H]2O (stereo partly drawn) [Compound 3911] gave an IC50 [3] of less than 1 nM.

CCC(=O)O[C@H]1C(=O)[C@@]2(C)C([C@H](OC(=O)c3ccccc3)[C@]3(O)C[C@H](OC(=O)[C@H](O)[C@@H](NC(=O)OC(C)(C)C)c4ccc([N+](=O)[O-])cc4)C(C)=C1C3(C)C)[C@]1(OC(C)=O)CO[C@@H]1C[C@@H]2O (stereo partly drawn) [Compound 0602] showed an IC50 [2] of less than 1 nM.

With CC(=O)O[C@@]12CO[C@@H]1C[C@H](O)[C@@]1(C)C(=O)[C@H](OC(=O)C=C(C)C)C3=C(C)[C@@H](OC(=O)[C@H](O)[C@@H](NC(=O)OC(C)(C)C)c4ccoc4)C[C@@](O)([C@@H](OC(=O)c4ccccc4)C12)C3(C)C (stereo partly drawn) [Compound 2499] the IC50 [2] was less than 1 nM.

For CCCC(=O)O[C@H]1C[C@H]2OC[C@@]2(OC(C)=O)C2[C@H](OC(=O)c3ccccc3)[C@]3(O)C[C@H](OC(=O)[C@H](O)[C@@H](NC(=O)OCC(C)C)c4cccs4)C(C)=C([C@@H](O)C(=O)[C@@]21C)C3(C)C (stereo partly drawn) [Compound 4290], the IC50 [1] was less than 10 nM.

In the case of CC(=O)O[C@@]12CO[C@@H]1C[C@H](OC(=O)COc1ccccc1)[C@@]1(C)C(=O)[C@H](O)C3=C(C)[C@@H](OC(=O)[C@H](O)[C@@H](NC(=O)C=C(C)C)c4ccco4)C[C@@](O)([C@@H](OC(=O)c4ccccc4)C12)C3(C)C (stereo partly drawn) [Compound 5555], the IC50 (HCT116 colony formation, 72 h drug incubation, Example 15, C-7 substituted acetate/C-10 hydroxy taxanes) is reported as less than 1 nM.

Compound CCC(=O)O[C@H]1C(=O)[C@@]2(C)C([C@H](OC(=O)c3ccccc3)[C@]3(O)C[C@H](OC(=O)[C@H](O)[C@@H](NC(=O)OC(C)C)c4cccs4)C(C)=C1C3(C)C)[C@]1(OC(C)=O)CO[C@@H]1C[C@@H]2O (stereo partly drawn) [Compound 3361] has an IC50 [2] of less than 1 nM.

For CCC(=O)O[C@H]1C[C@H]2OC[C@@]2(OC(C)=O)C2[C@H](OC(=O)c3ccccc3)[C@]3(O)C[C@H](OC(=O)[C@H](O)[C@@H](NC(=O)OC(C)(C)C)C4CC4)C(C)=C([C@@H](O)C(=O)[C@@]21C)C3(C)C (stereo partly drawn) [Compound 5070], the IC50 [1] was less than 10 nM.

In the case of CC(=O)O[C@@]12CO[C@@H]1C[C@H](O)[C@@]1(C)C(=O)[C@H](OC(=O)C=C(C)C)C3=C(C)[C@@H](OC(=O)[C@H](O)[C@H](C=C(C)C)NC(=O)OC(C)(C)C)C[C@@](O)([C@@H](OC(=O)c4ccccc4)C12)C3(C)C (stereo partly drawn) [Compound 2455], the IC50 [2] is reported as less than 10 nM.

Work on C/C=C/C(=O)N[C@@H](c1cccs1)[C@@H](O)C(=O)O[C@H]1C[C@@]2(O)[C@@H](OC(=O)c3ccccc3)C3[C@](C)(C(=O)[C@H](O)C(=C1C)C2(C)C)[C@@H](OC(=O)OC)C[C@H]1OC[C@@]31OC(C)=O (stereo partly drawn) [Compound 4766] yielded an IC50 [3] of less than 1 nM.

With CCNC(=O)O[C@H]1C[C@H]2OC[C@@]2(OC(C)=O)C2[C@H](OC(=O)c3ccccc3)[C@]3(O)C[C@H](OC(=O)[C@H](O)[C@@H](NC(=O)OC(C)(C)C)c4ccco4)C(C)=C([C@@H](O)C(=O)[C@@]21C)C3(C)C (stereo partly drawn) [Compound 5393] the IC50 [4] was less than 1 nM.

With CCC(C)(C)OC(=O)N[C@@H](c1ccco1)[C@@H](O)C(=O)O[C@H]1C[C@@]2(O)[C@@H](OC(=O)c3ccccc3)C3[C@](C)(C(=O)[C@H](O)C(=C1C)C2(C)C)[C@@H](OC(=O)OCc1ccccc1)C[C@H]1OC[C@@]31OC(C)=O (stereo partly drawn) [Compound 6246] the IC50 [3] was less than 1 nM.

CCC(=O)O[C@H]1C(=O)[C@@]2(C)C([C@H](OC(=O)c3ccccc3)[C@]3(O)C[C@H](OC(=O)[C@H](O)[C@@H](NC(=O)OC(C)(C)C)c4cccnc4)C(C)=C1C3(C)C)[C@]1(OC(C)=O)CO[C@@H]1C[C@@H]2O (stereo partly drawn) [Compound 0517] showed an IC50 [2] of less than 10 nM.

Work on CCC(=O)O[C@H]1C[C@H]2OC[C@@]2(OC(C)=O)C2[C@H](OC(=O)c3ccccc3)[C@]3(O)C[C@H](OC(=O)[C@H](O)[C@@H](NC(=O)c4ccco4)c4ccco4)C(C)=C([C@@H](O)C(=O)[C@@]21C)C3(C)C (stereo partly drawn) [Compound 3629] yielded an IC50 [1] of less than 1 nM.

Work on CCCC(=O)O[C@H]1C[C@H]2OC[C@@]2(OC(C)=O)C2[C@H](OC(=O)c3ccccc3)[C@]3(O)C[C@H](OC(=O)[C@H](O)[C@@H](NC(=O)OC(C)(C)C)c4ccoc4)C(C)=C([C@@H](O)C(=O)[C@@]21C)C3(C)C (stereo partly drawn) [Compound 4394] yielded an IC50 [1] of less than 1 nM.

Compound CCCC(=O)O[C@H]1C[C@H]2OC[C@@]2(OC(C)=O)C2[C@H](OC(=O)c3ccccc3)[C@]3(O)C[C@H](OC(=O)[C@H](O)[C@@H](NC(=O)c4ccco4)c4cccs4)C(C)=C([C@@H](O)C(=O)[C@@]21C)C3(C)C (stereo partly drawn) [Compound 4219] has an IC50 [1] of 29 nM.

CCOC(=O)O[C@H]1C(=O)[C@@]2(C)C([C@H](OC(=O)c3ccccc3)[C@]3(O)C[C@H](OC(=O)[C@H](O)[C@@H](NC(=O)OC(C)(C)C)c4ccco4)C(C)=C1C3(C)C)[C@]1(OC(C)=O)CO[C@@H]1C[C@@H]2O (stereo partly drawn) [Compound 1822] was tested, and the IC50 [3] was less than 1 nM.
